ChEMBL document CHEMBL1201862, “PubChem BioAssay data set” (2004)
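Tested at 5 concentrations; 48 h exposure; 96-well plates; endpoints linearly interpolated, else capped at highest concentration. GI50: concentration for 50% inhibition of growth.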 Activity calls are given as the source filed them. Cut-off read from the data, not from the text of the source: active = GI50 up to about 1.1 µM and inactive = higher.

Experiments:
Assay in all cases: growth of human tumour cells (NCI), 48 h
LOX IMVI = tested on: LOX IMVI
CCRF-CEM = tested on: CCRF-CEM
UACC-257 = tested on: UACC-257
IGROV-1 = tested on: IGROV-1
SF-539 = tested on: SF-539
SNB-19 = tested on: SNB-19
UO-31 = tested on: UO-31
HCC 2998 = tested on: HCC 2998
MOLT-4 = tested on: MOLT-4
NCI-H23 = tested on: NCI-H23
NCI/ADR-RES = tested on: NCI/ADR-RES
SF-295 = tested on: SF-295
HCT-116 = tested on: HCT-116
NCI-H522 = tested on: NCI-H522
SNB-75 = tested on: SNB-75
SK-MEL-5 = tested on: SK-MEL-5
HT-29 = tested on: HT-29
COLO 205 = tested on: COLO 205
HL-60 = tested on: HL-60
HOP-92 = tested on: HOP-92
U-251 = tested on: U-251
MDA-N = tested on: MDA-N
OVCAR-3 = tested on: OVCAR-3
HCT-15 = tested on: HCT-15
A549 = tested on: A549
Hs-578T = tested on: Hs-578T
SW-620 = tested on: SW-620
BT-549 = tested on: BT-549
HOP-62 = tested on: HOP-62
OVCAR-5 = tested on: OVCAR-5
SF-268 = tested on: SF-268
K562 = tested on: K562
T47D = tested on: T47D
786-0 = tested on: 786-0
OVCAR-8 = tested on: OVCAR-8
SK-MEL-28 = tested on: SK-MEL-28
OVCAR-4 = tested on: OVCAR-4
DU-145 = tested on: DU-145
CAKI-1 = tested on: CAKI-1
RPMI-8226 = tested on: RPMI-8226
TK-10 = tested on: TK-10
RXF 393 = tested on: RXF 393
UACC-62 = tested on: UACC-62
SK-MEL-2 = tested on: SK-MEL-2
EKVX = tested on: EKVX
MCF7 = tested on: MCF7
KM12 = tested on: KM12
A498 = tested on: A498
SN12C = tested on: SN12C
MDA-MB-435 = tested on: MDA-MB-435
MDA-MB-231 = tested on: MDA-MB-231
Malme-3M = tested on: Malme-3M
ACHN = tested on: ACHN
PC-3 = tested on: PC-3
M14 = tested on: M14
NCI-H460 = tested on: NCI-H460
NCI-H226 = tested on: NCI-H226
SK-OV-3 = tested on: SK-OV-3

Compound: O=C(O)CSCC(=O)Nc1ccc2cccc3c2c1CC3
- GI50 (LOX IMVI): > 100 µM (inactive)
- GI50 (CCRF-CEM): > 100 µM (inactive)
- GI50 (UACC-257): > 100 µM (inactive)
- GI50 (IGROV-1): > 100 µM (inactive)
- GI50 (SF-539): > 100 µM (inactive)
- GI50 (SNB-19): > 100 µM (inactive)
- GI50 (UO-31): > 100 µM (inactive)
- GI50 (HCC 2998): > 100 µM (inactive)
- GI50 (MOLT-4): > 100 µM (inactive)
- GI50 (NCI-H23): > 100 µM (inactive)
- GI50 (NCI/ADR-RES): > 100 µM (inactive)
- GI50 (SF-295): > 100 µM (inactive)
- GI50 (HCT-116): > 100 µM (inactive)
- GI50 (NCI-H522): > 100 µM (inactive)
- GI50 (SNB-75): > 100 µM (inactive)
- GI50 (SK-MEL-5): > 100 µM (inactive)
- GI50 (HT-29): > 100 µM (inactive)
- GI50 (COLO 205): > 100 µM (inactive)
- GI50 (HL-60): > 100 µM (inactive)
- GI50 (HOP-92): > 100 µM (inactive)
- GI50 (U-251): > 100 µM (inactive)
- GI50 (MDA-N): > 100 µM (inactive)
- GI50 (OVCAR-3): > 100 µM (inactive)
- GI50 (HCT-15): > 100 µM
- GI50 (A549): > 100 µM (inactive)
- GI50 (Hs-578T): > 100 µM (inactive)
- GI50 (SW-620): > 100 µM (inactive)
- GI50 (BT-549): > 100 µM (inactive)
- GI50 (HOP-62): > 100 µM (inactive)
- GI50 (OVCAR-5): > 100 µM (inactive)
- GI50 (SF-268): > 100 µM (inactive)
- GI50 (K562): > 100 µM (inactive)
- GI50 (T47D): > 100 µM (inactive)
- GI50 (786-0): > 100 µM (inactive)
- GI50 (OVCAR-8): > 100 µM (inactive)
- GI50 (SK-MEL-28): > 100 µM (inactive)
- GI50 (OVCAR-4): > 100 µM (inactive)
- GI50 (DU-145): > 100 µM (inactive)
- GI50 (CAKI-1): > 100 µM (inactive)
- GI50 (RPMI-8226): > 100 µM (inactive)
- GI50 (TK-10): > 100 µM (inactive)
- GI50 (RXF 393): > 100 µM (inactive)
- GI50 (UACC-62): > 100 µM (inactive)
- GI50 (SK-MEL-2): > 100 µM (inactive)
- GI50 (EKVX): > 100 µM (inactive)
- GI50 (MCF7): 97.1 µM (inactive)
- GI50 (KM12): > 100 µM (inactive)
- GI50 (A498): > 100 µM (inactive)
- GI50 (SN12C): > 100 µM (inactive)
- GI50 (MDA-MB-435): > 100 µM (inactive)
- GI50 (MDA-MB-231): > 100 µM (inactive)
- GI50 (Malme-3M): > 100 µM (inactive)
- GI50 (ACHN): > 100 µM (inactive)
- GI50 (PC-3): > 100 µM (inactive)
- GI50 (M14): > 100 µM (inactive)

Compound: NCCO/C=C/C(N)C(=O)O (stereo not given) [AMINOETHOXYVINYLGLYCINE]
- GI50 (LOX IMVI): > 100 µM (inactive)
- GI50 (CCRF-CEM): > 100 µM (inactive)
- GI50 (UACC-257): > 100 µM (inactive)
- GI50 (IGROV-1): > 100 µM (inactive)
- GI50 (SF-539): > 100 µM (inactive)
- GI50 (SNB-19): > 100 µM (inactive)
- GI50 (UO-31): > 100 µM (inactive)
- GI50 (HCC 2998): > 100 µM (inactive)
- GI50 (NCI-H23): > 100 µM (inactive)
- GI50 (NCI/ADR-RES): > 100 µM (inactive)
- GI50 (SF-295): > 100 µM (inactive)
- GI50 (HCT-116): > 100 µM (inactive)
- GI50 (NCI-H522): 10.1 µM (inactive)
- GI50 (SNB-75): > 100 µM (inactive)
- GI50 (SK-MEL-5): > 100 µM (inactive)
- GI50 (HT-29): > 100 µM (inactive)
- GI50 (COLO 205): > 100 µM (inactive)
- GI50 (HL-60): > 100 µM (inactive)
- GI50 (HOP-92): > 100 µM (inactive)
- GI50 (U-251): > 100 µM (inactive)
- GI50 (MDA-N): > 100 µM (inactive)
- GI50 (OVCAR-3): > 100 µM (inactive)
- GI50 (HCT-15): > 100 µM
- GI50 (NCI-H460): > 100 µM (inactive)
- GI50 (NCI-H226): > 100 µM (inactive)
- GI50 (A549): > 100 µM (inactive)
- GI50 (Hs-578T): > 100 µM (inactive)
- GI50 (SW-620): > 100 µM (inactive)
- GI50 (BT-549): > 100 µM (inactive)
- GI50 (HOP-62): > 100 µM (inactive)
- GI50 (OVCAR-5): > 100 µM (inactive)
- GI50 (SF-268): > 100 µM (inactive)
- GI50 (K562): > 100 µM (inactive)
- GI50 (T47D): > 100 µM (inactive)
- GI50 (786-0): > 100 µM (inactive)
- GI50 (OVCAR-8): > 100 µM (inactive)
- GI50 (SK-MEL-28): > 100 µM (inactive)
- GI50 (SK-OV-3): > 100 µM (inactive)
- GI50 (OVCAR-4): > 100 µM (inactive)
- GI50 (DU-145): > 100 µM (inactive)
- GI50 (CAKI-1): > 100 µM (inactive)
- GI50 (RPMI-8226): > 100 µM (inactive)
- GI50 (TK-10): > 100 µM (inactive)
- GI50 (RXF 393): > 100 µM (inactive)
- GI50 (UACC-62): > 100 µM (inactive)
- GI50 (SK-MEL-2): > 100 µM (inactive)
- GI50 (EKVX): > 100 µM (inactive)
- GI50 (MCF7): > 100 µM (inactive)
- GI50 (KM12): > 100 µM (inactive)
- GI50 (SN12C): > 100 µM (inactive)
- GI50 (MDA-MB-435): > 100 µM (inactive)
- GI50 (MDA-MB-231): > 100 µM (inactive)
- GI50 (ACHN): > 100 µM (inactive)
- GI50 (PC-3): > 100 µM (inactive)
- GI50 (M14): > 100 µM (inactive)
